Legend:
Digitaria ciliaris = assay: Herbicidal efficacy test by soil treatment before germination under upland field condition; format: in vivo; settings: dose 1 kg/ha; 21st day after treatment; ratings of 1 to 5
Excerpt: (§1) A vat having an area of 5×10 cm^2 and a depth of 5 cm was filled with upland field soil, and seeds of Chenopodium album, Echinochloa crus-galli, Amaranthus viridis, Digitaria ciliaris and sweet corn (Zea mays) were sown thereon and covered with soil by a depth of 0.5 cm.

Chenopodium album [1] = assay: as above; format: in vivo; settings: dose 1 kg/ha; 21st day after treatment; ratings of 1 to 5
Excerpt: as §1

Amaranthus viridis [2] = assay: as above; format: in vivo; settings: dose 1 kg/ha; 21st day after treatment; ratings of 1 to 5
Excerpt: as §1

Echinochloa crus-galli [3] = assay: as above; format: in vivo; settings: dose 1 kg/ha; 21st day after treatment; ratings of 1 to 5
Excerpt: as §1

[4] = system: annual broadleaf weeds such as Lindernia procumbens, Rotala indica and Elatine triandra; assay: Herbicidal efficacy test by pre-emergence treatment under submergence condition; format: in vivo; settings: 15th day after treatment, ratings of 1 to 5
Excerpt: (§3) A 1/10,000-are pot was filled with paddy field soil, and, after plowing, seeds of Echinochloa oryzicola, Cyperus difformis, Monochoria vaginalis, Scirpus juncoides, Eleocharis acicularis and other annual broadleaf weeds such as Lindernia procumbens, Rotala indica and Elatine triandra were sown. Rice (oryza sativa) seedlings (cultiver “Koshihikari”) at a 2.5-leaf stage were transplanted and kept under a submergence condition. After one day, the wettable powder or emulsifiable concentrate of the compound of the present invention, prepared according to Preparation Example, was diluted and dropped on a water surface at a predetermined dose.

Echinochloa oryzicola = assay: as above; format: in vivo; settings: 15th day after treatment, ratings of 1 to 5
Excerpt: as §3

Scirpus juncoides = assay: as above; format: in vivo; settings: 15th day after treatment, ratings of 1 to 5
Excerpt: as §3

Monochoria vaginalis = assay: as above; format: in vivo; settings: 15th day after treatment, ratings of 1 to 5; note: key: 1 shows no influence; 5 shows complete die
Excerpt: as §3

Chenopodium album [5] = assay: Herbicidal efficacy test by foliar treatment after germination under upland field condition; format: in vivo; settings: dose 1 kg/ha, rated 1 to 5 on the 14th day after treatment; note: key: 1 shows no influence; 5 shows complete die
Excerpt: (§2) A vat having an area of 5×10 cm^2 and a depth of 5 cm was filled with upland field soil, and seeds of Chenopodium album, Echinochloa crus-galli, Amaranthus viridis and Abutilon theophrasti were sown thereon and covered with soil by a depth of 0.5 cm. Water was sprayed as required to grow them for 14 days.

Amaranthus viridis [6] = assay: as above; format: in vivo; settings: dose 1 kg/ha, rated 1 to 5 on the 14th day after treatment
Excerpt: as §2

Echinochloa crus-galli [7] = assay: as above; format: in vivo; settings: dose 1 kg/ha, rated 1 to 5 on the 14th day after treatment
Excerpt: as §2

Eleocharis acicularis = assay: Herbicidal efficacy test by pre-emergence treatment under submergence condition; format: in vivo; settings: 15th day after treatment, ratings of 1 to 5; note: key: 1 shows no influence; 5 shows complete die
Excerpt: as §3

Cyperus difformis = assay: as above; format: in vivo; settings: 15th day after treatment, ratings of 1 to 5; note: key: 1 shows no influence; 5 shows complete die
Excerpt: as §3

[8] = system: Rice (oryza sativa) seedlings (cultiver Koshihikari); settings: in vivo
Excerpt: as §3

Abutilon theophrasti = assay: Herbicidal efficacy test by foliar treatment after germination under upland field condition; format: in vivo; settings: Dc: Digitaria ciliaris (table footnote; method names Abutilon theophrasti), dose 1 kg/ha, rated 1 to 5 on the 14th day after treatment
sweet corn (Zea mays) = assay: Injury to corn, soil treatment before germination under upland field condition; format: in vivo; settings: dose 1 kg/ha; 21st day after treatment; ratings of 1 to 5
Excerpt: as §1
Throughout, for Herbicidal activity Av: key: 1 shows no influence; 5 shows complete die.
Throughout, for Herbicidal activity Ca: key: 1 shows no influence; 5 shows complete die.

| Compound | Herbicidal activity Dc (Digitaria ciliaris) | Herbicidal activity Ca (Chenopodium album [1]) | Herbicidal activity Av (Amaranthus viridis [2]) | Herbicidal activity Ec (Echinochloa crus-galli [3]) | Herbicidal efficacy Blw ([4]; dose 0.5 kg/ha) | Herbicidal efficacy Blw ([4]; dose 1 kg/ha) | Herbicidal efficacy Eo (Echinochloa oryzicola; dose 0.5 kg/ha) | Herbicidal efficacy Eo (Echinochloa oryzicola; dose 1 kg/ha) | Herbicidal efficacy Sj (Scirpus juncoides; dose 0.5 kg/ha) | Herbicidal efficacy Sj (Scirpus juncoides; dose 1 kg/ha) | Herbicidal efficacy Mv (Monochoria vaginalis; dose 0.5 kg/ha) | Herbicidal efficacy Mv (Monochoria vaginalis; dose 1 kg/ha) | Herbicidal activity Ca (Chenopodium album [5]) | Herbicidal activity Av (Amaranthus viridis [6]) | Herbicidal activity Ec (Echinochloa crus-galli [7]) | Herbicidal efficacy Ea (Eleocharis acicularis; dose 0.5 kg/ha) | Herbicidal efficacy Ea (Eleocharis acicularis; dose 1 kg/ha) | Herbicidal efficacy Cd (Cyperus difformis; dose 0.5 kg/ha) | Herbicidal efficacy Cd (Cyperus difformis; dose 1 kg/ha) | Herbicidal activity Dc (Abutilon theophrasti) | other results |
| --- | --- | --- | --- | --- | --- | --- | --- | --- | --- | --- | --- | --- | --- | --- | --- | --- | --- | --- | --- | --- | --- |
| Cc1cc(Oc2c(Cl)cc(C(F)(F)F)cc2Cl)nn1C(N)=O [Compound 3-3] | 4.5 | 5 | 5 | 3.5 | 5 | 5 | 5 | 5 | 5 | 5 | 5 | 5 | 5 | 5 | 4.5 | 5 | 5 | 5 | 5 | 5 | Injury Os [8]: 1.5; Injury Zm (sweet corn (Zea mays)): 1.5 |
| C=CCNC(=O)n1nc(Oc2c(Cl)cc(C(F)(F)F)cc2Cl)cc1C [Compound 3-130] | – | – | – | – | 5 | 5 | 5 | 5 | 5 | 5 | 5 | 5 | 5 | 5 | 5 | 5 | 5 | 5 | 5 | 5 | – |
| Cc1cc(Oc2c(Cl)cc(C(F)(F)F)cc2Cl)nn1C(=O)NC(C)C [Compound 3-89] | – | – | – | – | 5 | 5 | 5 | 5 | 5 | 5 | 5 | 5 | 5 | 5 | 5 | 5 | 5 | 5 | 5 | 5 | – |
| Cc1cc(Oc2c(Cl)cc(C(F)(F)F)cc2Cl)nn1C(=O)NCCBr [Compound 3-146] | – | – | – | – | 5 | 5 | 5 | 5 | 5 | 5 | 5 | 5 | – | – | – | 5 | 5 | 5 | 5 | – | Injury Os [8]: 1 |
| CCNC(=O)n1nc(Oc2c(Cl)cc(C(F)(F)F)cc2Cl)cc1CC [Compound 3-330] | 5 | 5 | 5 | 3.5 | 5 | 5 | 5 | 5 | 5 | 5 | 5 | 5 | 5 | 5 | 5 | 5 | 5 | 5 | 5 | 5 | Injury Zm (sweet corn (Zea mays)): 1.5 |
| CNC(=O)n1nc(Oc2c(Cl)cc(C(F)(F)F)cc2Cl)c(Cl)c1C [Compound 3-249] | 5 | 5 | 5 | 4.5 | 5 | 5 | 5 | 5 | 5 | 5 | 5 | 5 | 5 | 5 | 5 | 5 | 5 | 5 | 5 | 5 | Injury Zm (sweet corn (Zea mays)): 1.2 |
| CCONC(=O)n1nc(Oc2c(Cl)cc(C(F)(F)F)cc2Cl)cc1C [Compound 3-158] | – | – | – | – | 5 | 5 | 5 | 5 | 5 | 5 | 5 | 5 | 5 | 5 | 5 | 5 | 5 | 5 | 5 | 5 | – |
| CCNC(=O)n1nc(Oc2c(Cl)cc(C(F)(F)F)cc2Cl)cc1C [Compound 3-44] | 5 | 5 | 5 | 5 | 5 | 5 | 5 | 5 | 5 | 5 | 5 | 5 | 5 | 5 | 5 | 5 | 5 | 5 | 5 | 5 | Injury Zm (sweet corn (Zea mays)): 3 |
| CCNC(=O)n1nc(Oc2c(Cl)cc(C(F)(F)F)cc2Cl)c(Cl)c1C [Compound 3-253] | 5 | 5 | 5 | 4 | 5 | 5 | 5 | 5 | 5 | 5 | 5 | 5 | 5 | 5 | 5 | 5 | 5 | 5 | 5 | 5 | Injury Zm (sweet corn (Zea mays)): 1.5 |
| CCNC(=S)n1nc(Oc2c(Cl)cc(C(F)(F)F)cc2Cl)cc1C [Compound 3-45] | 5 | 5 | 5 | 5 | 5 | 5 | 5 | 5 | 4 | 5 | 5 | 5 | 5 | 5 | 5 | 5 | 5 | 5 | 5 | 5 | Injury Zm (sweet corn (Zea mays)): 2 |
| CNC(=O)n1nc(Oc2c(Cl)cc(C(F)(F)F)cc2Cl)cc1C [Compound 3-14] | 5 | 5 | 5 | 4.9 | 5 | 5 | 5 | 5 | 5 | 5 | 5 | 5 | 5 | 5 | 5 | 5 | 5 | 5 | 5 | 5 | – |
| COCNC(=S)n1nc(Oc2c(Cl)cc(C(F)(F)F)cc2Cl)cc1C [Compound 3-169] | – | – | – | – | 5 | 5 | 5 | 5 | 4 | 4.2 | 5 | 5 | – | – | – | 5 | 5 | 5 | 5 | – | Injury Os [8]: 1 |
